What all share (type): cell-based
Data set [1] has as its system human hepatocellular carcinoma Huh 7. Description: Cell morphology observation under phase contrast microscope, Huh 7. To be noted: 48 h, Bortezomib 5 nM, M1 virus 0.1 moi, FIG. 1. The procedure:
(§1) a) Cell culture: human hepatocellular carcinoma Hep3B and Huh 7 were grown in DMEM complete medium containing 10% FBS, 100 U/ml penicillin and 0.1 mg/ml streptomycin; all cell strains were cultured and passaged in a closed incubator at a constant temperature of 37° C. (95% relative humidity) with 5% CO2, and the growth was observed under inverted microscope. The cells were passaged about every 2 to 3 days, and the cells in the logarithmic phase were used in the formal experiment.
(§2) b) Cell treatment and morphological observation: cells in the logarithmic growth phase and the DMEM complete culture medium (containing 10% fetal bovine serum and 1% double antibody) were selected to prepare cell suspension, and the cells were inoculated in a 24-well culture plate at a density of 2.5×10^4/well.

Data set [2] has as its system human hepatocellular carcinoma Hep3B. Description: Cell morphology observation under phase contrast microscope, Hep3B. Particulars: 48 h, Bortezomib 5 nM, M1 virus 0.001 moi, FIG. 1. As for the experimental part:
as §1, §2

In data set [3] the test system is human hepatocellular carcinoma Huh 7. The data set can be described thus: MTT cell viability, Bortezomib and M1 virus, 48 h. Particulars: Huh-7, 48 h, read-out: relative cell viability of tumor cells. The procedure: a) Inoculating cells, and drug administering treatment: cells in the logarithmic growth phase and the DMEM complete culture medium (containing 10% fetal bovine serum and 1% double antibody) were selected to prepare cell suspension, and were inoculated in a 96-well culture plate at a density of 4×10^3/well. 12 h later, the cells were completely adhered to the wall. The cells were divided into control group without medicament nor virus treatment, Bortezomib treatment group, M1 infection group and Bortezomib/M1 combined group.
b) MTT reacted with intracellular succinate dehydrogenase: after culturing for 48 h, 20 μl (5 mg/ml) of MTT was added to each well and incubated for 4 h, at this time, the granular bluish violet formazan crystals formed in living cells could be observed under microscope.
c) Dissolving formazan granules: the supernatant was carefully removed, DMSO 100 μl/well was added to dissolve the crystal, shaked in a microoscillator for 5 min, and then detect the optical density (OD value) of each well with wavelength of 570 nm on the enzyme-linked detector. The experiment was repeated for 3 times in each group. Cell viability=OD value of medicament treatment group/OD value of control group×100%.
The EC50 shift of the two curves was calculated, that is, the EC50 shift in FIG. 2, the larger the difference value was, the more significant the medicament synergized.

The test system is the same in data set [4]. The data set can be described thus: MTT cell viability, various proteasome inhibitors and M1 virus, 72 h. As for the experimental part:
a) Inoculating cells, and drug administering treatment: cells in the logarithmic growth phase and the DMEM complete culture medium (containing 10% fetal bovine serum and 1% double antibody) were selected to prepare cell suspension, and were inoculated in a 96-well culture plate at a density of 4×10^3/well. 12 h later, the cells were completely adhered to the wall. The cells were divided into control group without medicament nor virus treatment, proteasome inhibitor group (including CEP-18770, MLN-9708, ONX-0912), M1 infected group and proteasome inhibitor/M1 combined group.
b) MTT reacted with intracellular succinate dehydrogenase: after culturing for 72 h, 20 μl (5 mg/ml) of MTT was added to each well and incubated for 4 h, at this time, the granular bluish violet formazan crystals formed in living cells could be observed under microscope.
c) Dissolving formazan granules: the supernatant was carefully removed, DMSO 100 μl/well was added to dissolve the crystal, vibrate in a microoscillator for 5 min, and then detect the optical density (OD value) of each well with wavelength of 570 nm on the enzyme-linked detector. Cell viability=OD value of medicament treatment group/OD value of control group x 100%.

Where [5] appears, read: Homo sapiens, Huh-7, 72 h, read-out: relative cell viability of tumor cells.

As a reminder, the viability is a read-out of living cells in per cent, often relative to untreated cells. In the case of `CC(C)C[C@H](NC(=O)[C@H](Cc1ccccc1)NC(=O)c1cnccn1)B(O)O` [Bortezomib], the “morphological changes of cells” value in data set [1] and in data set [2] was “no significant change in cell morphology” each time. Besides, in data set [3], the viability at 0.005 µM was found to be 99.7%.

For the compound `CC(C)C[C@H](NC(=O)[C@@H](NC(=O)c1cccc(-c2ccccc2)n1)[C@@H](C)O)B(O)O` [CEP-18770, Delanzomib], the viability at 0.005 µM in data set [4] (setting [5]) was found to be 105%.

As for `COC[C@H](NC(=O)c1cnc(C)s1)C(=O)N[C@@H](COC)C(=O)N[C@@H](Cc1ccccc1)C(=O)[C@@]1(C)CO1` [ONX-0912, Oprozomib], in data set [4] (setting [5]), the viability at 0.05 µM was determined as 70%.

Consider Ixazomib [MLN-9708], for which the “relative cell viability of tumor cells” value in data set [4] (FIG. 4B, Huh 7, MTT, 72 h, MLN-9708 5 nM, M1 virus MOI=0.1) is reported as 77.7%.

The values above are taken from patent US20210228660A1, “USE OF PROTEASOME INHIBITOR AND […] PREPARATION OF ANTI-TUMOR MEDICAMENT” (GUANGZHOU VIROTECH PHARMACEUTICAL CO., LTD., priority 2018, published 2021).
